The structures appear in SMILES notation. pEC50: −log10 of the molar value. A value given as a limit tells only on which side of the number the result lay.

GLP1R, sequence (P43220 24-463): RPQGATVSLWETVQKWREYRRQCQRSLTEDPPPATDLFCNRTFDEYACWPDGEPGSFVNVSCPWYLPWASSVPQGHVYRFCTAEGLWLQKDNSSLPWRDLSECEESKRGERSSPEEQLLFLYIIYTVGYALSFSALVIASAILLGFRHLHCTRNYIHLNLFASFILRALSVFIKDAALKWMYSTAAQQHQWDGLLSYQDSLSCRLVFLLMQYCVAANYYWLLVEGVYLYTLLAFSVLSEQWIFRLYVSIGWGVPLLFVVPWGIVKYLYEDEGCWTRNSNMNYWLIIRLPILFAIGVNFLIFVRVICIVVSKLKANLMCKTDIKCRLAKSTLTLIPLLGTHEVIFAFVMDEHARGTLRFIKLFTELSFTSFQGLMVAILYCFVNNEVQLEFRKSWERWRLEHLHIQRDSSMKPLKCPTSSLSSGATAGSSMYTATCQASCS

The experiment has as its target GLP1R (Homo sapiens, UniProt P43220). Kind of experiment: GLP1R cAMP HTRF assay, HEK293/GLP-1R/CRE/Luc (HEK293T cells). To be noted: read-out: EC50. In kind it is cell-based. Summed up: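 cAMP accumulation via HTRF after 30 min, 37 °C exposure of 1000 receptor-expressing cells/well to compound (0.5% DMSO final) in IBMX (500 μM)/0.1% BSA DPBS.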
For orientation: In TR-FRET formats the signal depends on donor and acceptor labels being close together.
As a reminder, the pEC50 is the negative decadic logarithm of the EC50, by convention in mol/L. With `N#Cc1ccc(COc2cc(C3=CCN(Cc4nc5ccc(C(=O)O)cc5n4C[C@@H]4CCO4)CC3)ccc2F)c(F)c1` [Compound 204, (S)-2-((4-(3-((4-cyano-2-fluorobenzyl)oxy)-4-fluorophenyl)-3,6-dihydropyridin-1(2H)-yl)methyl)-1-(oxetan-2-ylmethyl)-1H-benzo[d]imidazole-6-carboxylic acid], the pEC50 is ≥ 7.82.

On to `N#Cc1ccc(COc2cc(C3=CCN(Cc4nc5ccc(C(=O)O)cc5n4C[C@@H]4CCO4)CC3)cc(F)c2F)c(F)c1` [Compound 205, (S)-2-((4-(3-(4-cyano-2-fluorobenzyloxy)-4,5-difluorophenyl)-5,6-dihydropyridin-1(2H)-yl)methyl)-1-(oxetan-2-ylmethyl)-1H-benzo[d]imidazole-6-carboxylic acid], for which the negative logarithm of the EC50 (pEC50) is ≥ 6.82.

With `N#Cc1ccc(COc2ccc(F)c(C3=CCN(Cc4nc5ccc(C(=O)O)cc5n4C[C@@H]4CCO4)CC3)c2)c(F)c1` [Compound 206, (S)-2-((4-(5-((4-cyano-2-fluorobenzyl)oxy)-2-fluorophenyl)-3,6-dihydropyridin-1(2H)-yl)methyl)-1-(oxetan-2-ylmethyl)-1H-benzo[d]imidazole-6-carboxylic add], the negative logarithm of the EC50 (pEC50) is ≥ 7.82.

Regarding `O=C(O)c1ccc2nc(CN3CC=C(c4cc(OCc5ccc(C#CC6CC6)cc5F)ccc4F)CC3)n(C[C@@H]3CCO3)c2c1` [Compound 208], the pEC50 was ≥ 6.82.

Regarding `O=C(O)c1ccc2nc(CN3CC=C(c4ncc(F)c(OCc5ccc(C#CC6CC6)cc5F)n4)CC3)n(C[C@@H]3CCO3)c2c1` [Compound 209, (S)-2-((4-(4-((4-(cyclopropylethynyl)-2-fluorobenzyl)oxy)-5-fluoropyrimidin-2-yl)-3,6-dihydropyridin-1(2H)-yl)methyl)-1-(oxetan-2-ylmethyl)-1H-benzo[d]imidazole-6-carboxylic add], the negative logarithm of the EC50 (pEC50) is ≥ 7.82.

In the case of `N#Cc1ccc(COc2ncc(F)c(C3=CCN(Cc4nc5ccc(C(=O)O)cc5n4C[C@@H]4CCO4)CC3)n2)c(F)c1` [Compound 210, (S)-2-((4-(2-(4-cyano-2-fluorobenzyloxy)-5-fluoropyrimidin-4-yl)-5,6-dihydropyridin-1(2H)-yl)methyl)-1-(oxetan-2-ylmethyl)-1H-benzo[d]imidazole-6-carboxylic add], the pEC50 was ≥ 7.82.

For the compound `O=C(O)c1ccc2nc(CN3CC=C(c4nc(OCc5ccc(C#CC6CC6)cc5F)ncc4F)CC3)n(C[C@@H]3CCO3)c2c1` [Compound 211, (S)-2-((4-(2-(4-(cyclopropylethynyl)-2-fluorobenzyloxy)-5-fluoropyrimidin-4-yl)-5,6-dihydropyridin-1(2H)-yl)methyl)-1-(oxetan-2-ylmethyl)-1H-benzo[d]imidazole-6-carboxylic acid], the pEC50 is ≥ 7.82.

With `N#Cc1ccc(COc2nc(C3=CCN(Cc4nc5ccc(C(=O)O)cc5n4C[C@@H]4CCO4)CC3)c(F)cc2F)c(F)c1` [Compound 212, (S)-2-((6-((4-cyano-2-fluorobenzyl)oxy)-3,5-difluoro-3′,6′-dihydro-[2,4′-bipyridin]-1′(2′H)-yl)methyl)-1-(oxetan-2-ylmethyl)-1H-benzo[d]imidazole-6-carboxylic add], the negative logarithm of the EC50 (pEC50) is ≥ 7.82.

For the compound `O=C(O)c1ccc2nc(CN3CC=C(c4nc(OCc5ccc(C#CC6CC6)cc5F)c(F)cc4F)CC3)n(C[C@@H]3CCO3)c2c1` [Compound 213, (S)-2-((4-(6-(4-(cyclopropylethynyl)-2-fluorobenzyloxy)-3,5-difluoropyridin-2-yl)-5,6-dihydropyridin-1(2H)-yl)methyl)-3-(oxetan-2-ylmethyl)-3H-benzo[d]imidazole-5-carboxylic add], the pEC50 was ≥ 7.82.

`O=C(O)c1ccc2nc(CN3CC=C(c4nccc(OCc5ccc(F)cc5F)n4)CC3)n(C[C@@H]3CCO3)c2c1` [Compound 214, (S)-2-((4-(4-((2,4-difluorobenzyl)oxy)pyrimidin-2-yl)-3,6-dihydropyridin-1(2H)-yl)methyl)-1-(oxetan-2-ylmethyl)-1H-benzo[d]imidazole-6-carboxylic add]: the negative logarithm of the EC50 (pEC50) was ≥ 6.82.

`O=C(O)c1ccc2nc(CN3CC=C(c4ccnc(OCc5ccc(F)cc5F)n4)CC3)n(C[C@@H]3CCO3)c2c1` [Compound 215, (S)-2-((4-(2-((2H-difluorobenzyl)oxy)pyrimidin-4-yl)-3,6-dihydropyridin-1(2H)-yl)methyl)-1-(oxetan-2-ylmethyl)-1H-benzo[d]imidazole-6-carboxylic acid]: the negative-log EC50 (pEC50) was ≥ 6.82.

With `O=C(O)c1ccc2nc(CN3CC=C(c4nc(OCc5ccc(F)cc5F)c(F)cc4F)CC3)n(C[C@@H]3CCO3)c2c1` [Compound 216, (S)-2-((4-(6-(2,4-difluorobenzyloxy)-3,5-difluoropyridin-2-yl)-5,6-dihydropyridin-1(2H)-yl)methyl)-1-(oxetan-2-ylmethyl)-1H-benzo[d]imidazole-6-carboxylic acid], the pEC50 was ≥ 7.82.

As for `N#Cc1ccc(CNc2nc(C3=CCN(Cc4nc5ccc(C(=O)O)cc5n4C[C@@H]4CCO4)CC3)c(F)cc2F)c(F)c1` [Compound 217, (S)-2-((6-((4-cyano-2-fluorobenzyl)amino)-3,5-difluoro-3′,6′-dihydro-[2,4′-bipyridin]-1′(2′H)-yl)methyl)-1-(oxetan-2-ylmethyl)-1H-benzo[d]imidazole-6-carboxylic add], the pEC50 is ≥ 7.82.

With `O=C(O)c1ccc2nc(CN3CC=C(c4ccnc(OCc5ccc(C(F)(F)F)nc5)n4)CC3)n(C[C@@H]3CCO3)c2c1` [Compound 219, (S)-1-(oxetan-2-ylmethyl)-2-((4-(2-((6-(trifluoromethyl)pyridin-3-yl)methoxy)pyrimidin-4-yl)-5,6-dihydropyridin-1(2H)-yl)methyl)-1H-benzo[d]imidazole-6-carboxylic acid], the pEC50 is ≥ 6.00.

In the case of `O=C(O)c1ccc2nc(CN3CC=C(c4nc(OCc5ccc(C(F)(F)F)nc5)c(F)cc4F)CC3)n(C[C@@H]3CCO3)c2c1` [Compound 220, (S)-2-((3,5-difluoro-6-((6-(trifluoromethyl)pyridin-3-yl)methoxy)-5′,6′-dihydro-[2,4′-bipyridin]-1′(2′H)-yl)methyl)-1-(oxetan-2-ylmethyl)-1H-benzo[d]imidazole-6-carboxylic acid], the pEC50 was ≥ 7.82.

For `N#Cc1ccc(COc2ccc(F)c(C3=CCN(Cc4nc5ccc(C(=O)O)cc5n4C[C@@H]4CCO4)CC3)n2)c(F)c1` [Compound 223, (S)-2-((6-((4-cyano-2-fluorobenzyl)oxy)-3-fluoro-3′,6′-dihydro-[2,4′-bipyridin]-1(2′H)-yl)methyl)-1-(oxetan-2-ylmethyl)-1H-benzo[d]imidazole-6-carboxylic acid], the pEC50 is ≥ 7.82.

As for `N#Cc1ccc(COc2cccc(N3CCC(Cc4nc5ccc(C(=O)O)cc5n4C[C@@H]4CCO4)CC3)n2)c(F)c1` [Compound 226, (S)-2-((l-(6-((4-cyano-2-fluorobenzyl)oxy)pyridin-2-yl)piperidin-4-yl)methyl)-1-(oxetan-2-ylmethyl)-1H-benzo[d]imidazole-6-carboxylic acid], the pEC50 was ≥ 7.82.

Regarding `O=C(O)c1ccc2nc(CC3CCN(c4cccc(OCc5ccc(F)cc5F)n4)CC3)n(C[C@@H]3CCO3)c2n1` [Compound 229, (S)-2-((l-(6-((2,4-difluorobenzyl)oxy)pyridin-2-yl)piperidin-4-yl)methyl)-3-(oxetan-2-ylmethyl)-3H-imidazo[4,5-b]pyridine-5-carboxylic acid], the negative logarithm of the EC50 (pEC50) was ≥ 7.82.

In the case of `O=C(O)c1ccc2nc(CC3CCN(c4cccc(OCc5ccc(Cl)cn5)n4)CC3)n(C[C@@H]3CCO3)c2n1` [Compound 230, (S)-2-((l-(6-((5-chloropyridin-2-yl)methoxy)pyridin-2-yl)piperidin-4-yl)methyl)-3-(oxetan-2-ylmethyl)-3H-imidazo[4,5-b]pyridine-5-carboxylic acid], the negative-log EC50 (pEC50) is ≥ 6.82.

For `N#Cc1ccc(COc2cccc(N3CCC(Cc4nc5ccc(C(=O)O)nc5n4C[C@@H]4CCO4)CC3)n2)nc1` [Compound 231, (S)-2-((l-(6-((5-cyanopyridin-2-yl)methoxy)pyridin-2-yl)piperidin-4-yl)methyl)-3-(oxetan-2-ylmethyl)-3H-imidazo[4,5-b]pyridine-5-carboxylic acid], the pEC50 is ≥ 6.82.

As to `O=C(O)c1ccc2nc(CC3CCN(c4cccc(OCc5ccc(Cl)cn5)n4)CC3)n(C[C@@H]3CCO3)c2c1F` [Compound 232, (S)-2-((l-(6-((5-chloropyridin-2-yl)methoxy)pyridin-2-yl)piperidin-4-yl)methyl)-7-fluoro-1-(oxetan-2-ylmethyl)-1H-benzo[d]imidazole-6-carboxylic acid], the pEC50 is ≥ 6.82.

With `N#Cc1ccc(COc2cccc(N3CCC(Cc4nc5ccc(C(=O)O)c(F)c5n4C[C@@H]4CCO4)CC3)n2)nc1` [Compound 233, (S)-2-((l-(6-((5-cyanopyridin-2-yl)methoxy)pyridin-2-yl)piperidin-4-yl)methyl)-7-fluoro-1-(oxetan-2-ylmethyl)-1H-benzo[d]imidazole-6-carboxylic add], the negative-log EC50 (pEC50) is ≥ 6.82.

Take `N#Cc1ccc(COc2cccc(N3CCN(Cc4nc5ccc(C(=O)O)nc5n4C[C@@H]4CCO4)CC3=O)n2)c(F)c1` [Compound 234, (S)-2-((4-(6-(4-cyano-2-fluorobenzyloxy)pyridin-2-yl)-3-oxopiperazin-1-yl)methyl)-3-(oxetan-2-ylmethyl)-3H-imidazo[4,5-b]pyridine-5-carboxylic acid]: the negative logarithm of the EC50 (pEC50) is ≥ 6.82.

With `CC1(C)CN(Cc2nc3ccc(C(=O)O)cc3n2C[C@@H]2CCO2)CC=C1c1cccc(OCc2ccc(C#N)cc2F)n1` [Compound 235, (S)-2-((6-((4-cyano-2-fluorobenzyl)oxy)-3′,3′-dimethyl-3′,6′-dihydro-[2H′-bipyridin]-1′(2′H)yl)methyl)-1-(oxetan-2-ylmethyl)-1H-benzo[d]imidazole-6-carboxylic add], the pEC50 was ≥ 6.00.

Consider `N#Cc1ccc(COc2cccc(N3CC=C(Cc4nc5ccc(C(=O)O)cc5n4C[C@@H]4CCO4)CC3)n2)c(F)c1` [Compound 240, (S)-2-((6′-((4-cyano-2-fluorobenzyl)oxy)-3,6-dihydro-2H-[1,2′-bipyridin]-4-yl)methyl)-1-(oxetan-2-ylmethyl)-1H-benzo[d]imidazole-6-carboxylic add], for which the pEC50 was ≥ 6.82.

(Values after patent US10844049B2, “GLP-1R agonists and uses thereof” (QILU REGOR THERAPEUTICS INC., priority 2018, dated 2020).)
